Measurements as given in article PMC5612938, “A multiple biomarker assay for quality assessment of botanical drugs using a versatile microfluidic chip” (Scientific Reports, 2017).
Where a name gives a salt, the structure may show the parent alone. Marks after values point to notes of the source that are not given here.

How the values were obtained:
[1] = target: T1, Thrombin (from human plasma) (Homo sapiens, UniProt P00734); assay: on-chip affinity screening, binding degree by LC-MS peak area vs protein-free control (thrombin); conditions: for thrombin; [(As − Ac)/As] × 100, sample vs protein-free control, EIC peak area
T1 construct: Thrombin (from human plasma); purchased Sigma-Aldrich; host or cells: human plasma
From the text: (§1) In addition to quality assessment, the microfluidic chip can also function as “affinity chromatography” to identify bioactive constituents from botanical drugs in a convenient and efficient manner. After the bioassay, the bound phytochemicals were dissociated from the enzymes and accurately identified by LC-MS. The material used for the chambers in microfluidic system, polydimethylsiloxane (PDMS), is apt to adsorb small molecules nonspecifically, thus a protein-free control was applied to reflect the degree of nonspecific binding of compounds to the chip. Peak areas were obtained from the extracted ion chromatography (EIC) in an ion-trap mass spectrometry (IT-MS), and binding degree (binding degree % = [(As − Ac)/As] × 100, where As and Ac were the peak area in the sample and control, respectively) was calculated to indicate binding specificity. […] All these peaks were unambiguously confirmed via comparisons with chemical standards in terms of retention time and mass spectra (Table 2), and five thrombin inhibitors (danshensu, salvianolic acid B, salvianolic acid C, rosmarinic acid and ginsenoside Rg1) and six ACE inhibitors (astragaloside IV, ononin, formononetin, calycosin, danshensu and salvianolic acid B) were preliminarily identified. […] Enzyme inhibition assays of these hit compounds were then performed to verify the screening results. […] Compounds showing an inhibition rate over 70% were subjected to IC50 measurement.
(§2) MBs (10 mg/mL) were diluted 10 times in PB or Tris-HCl buffer, and 10 μL of the diluted MBs (1 mg/mL) were injected into one channel of the chip using a syringe infusion pump (Harvard Apparatus, USA) and retained by an external magnet. Then, 10 μL of thrombin or ACE solution was added and incubated with MBs for two hours at room temperature to form enzyme-MB complexes. The magnet was manually controlled to move MBs back and forth to enhance the ratio of reaction. Subsequently, MBs were washed twice in assay buffer and magnetically transferred to the other channel through the fluidic bridge, whose opening and closing was controlled by a pneumatic valve. Next, 10 μL of sample solutions of tested drug and 10 μL of enzymatic substrate were sequentially infused to the channel by the pump and incubated with the enzyme. When the enzymatic reaction was finished, the MBs were retained in the channel, and air was injected into the channel from the inlet using a syringe to push all the reacted solution to a 384-well plate. The absorbance of the solution was then monitored at 405 nm (for S-2238) or 340 nm (for FAPGG) using an Infinite F200 spectrophotometer (Tecan, Männedorf, Switzerland). Moreover, after detection, the reaction channel was washed three times by assay buffer to remove unbound constituents. 20 μL of 80% aqueous methanol was then injected and incubated with MBs for one hour to dissociate the bound constituents. The resulting solutions of replicates were combined, evaporated by a centrifugal evaporator, reconstituted in 80% aqueous methanol, centrifuged at 10,000 rpm for 10 min, and analyzed by LC-MS for chemical identification.
An Agilent 1100 HPLC system (Agilent Technologies, Waldbronn, Germany) coupled with an LCQ Deca XP^plus IT-MS (Thermo Finnigan, San Jose, CA, USA) equipped with an electrospray ionization (ESI) interface was employed for structure elucidation of the bounded constituents. […]

[2] = target: T1, Thrombin (from human plasma); assay: on-chip thrombin inhibition assay (S-2238 hydrolysis, absorbance 405 nm); assay type: biochemical; conditions: for IC50: for thrombin
Experimental: To enhance the performance of the on-chip assay, experimental parameters such as concentrations of enzymes and substrates, substrate reaction time, and incubation time of samples and enzymes were stepwise optimized. The activity of thrombin was determined by measuring the hydrolysis of chromogenic substrate S-2238 (HD-Phe-Pip-Arg-pNA) at 405 nm. As depicted in Fig. 2a, the absorbance increased rapidly along with the elevated concentrations of thrombin, while it reached a plateau at 0.5 U/mL. […] Moreover, it was clear from Fig. 2d that the maximum inhibitory effect of QSYQ sample (I1 of Table 1 in this assay) on thrombin was observed after 60 min of incubation. Therefore, to achieve favorable response and prevent signal saturation, optimal assay conditions for thrombin were determined to be 0.2 U/mL, 0.31 mM, 30 min and 60 min for the final concentrations of thrombin and S-2238, substrate reaction time and incubation time, respectively. […] In this assay, the concentrations of ACE and FAPGG were finally set at 0.027 U/mL and 0.72 mM, where the background value was lower and the reaction time was relatively shorter (30 min).
The optimized protocol was first applied to assess the quality of 11 batches of QSYQ intermediates (Table 1). Enzyme inhibition (in percentages) was employed as an indicator of drug quality and calculated according to the following equations: thrombin inhibition (%) = [1 − (AQSYQ/Ablank)] × 100; ACE inhibition (%) = [1 − (ΔAQSYQ/ΔAblank)] × 100; where AQSYQ and Ablank were the absorbance of the test sample and the blank sample after the enzymatic reaction (the background value was subtracted), and ΔAQSYQ and ΔAblank were the absorbance decrease between 0 min and 30 min of the samples. A scatter plot was generated to display the inhibition result of thrombin and ACE simultaneously. […] Moreover, artificial abnormal samples I6, I7 and I8, each with one abnormal (pre-extracted) herb, presented relatively lower inhibitions compared with I1.
(§3) Thrombin (from human plasma), ACE (from rabbit lung), FAPGG and captopril were purchased from Sigma-Aldrich (St. Louis, USA). S-2238 was obtained from Aglyco (Beijing, China). AEBSF-HCl was purchased from Selleckchem (Houston, USA). Trizma base (Tris) was obtained from Sangon Biotech (Shanghai, China) and dimethyl sulfoxide (DMSO) from J&K Scientific (Beijing, China). All other chemicals were purchased from Sinopharm Chemical (Shanghai, China) unless otherwise indicated. 0.2 M Phosphate buffer (PB, pH 6.5), and 50 mM Tris-HCl buffer (200 mM NaCl, pH 8.3) were prepared as assay buffers for thrombin and ACE, respectively.
as §2, with “20 μL of 80% aqueous methanol was then injected and incubated with MBs for one hour to dissociate the bound constituents. The resulting solutions of replicates were combined, evaporated by a centrifugal evaporator, reconstituted in 80% aqueous methanol, centrifuged at 10,000 rpm for 10 min, and analyzed by LC-MS for chemical identification.” left out

[3] = target: T2, ACE (from rabbit lung) (Oryctolagus cuniculus, UniProt P12822); assay: on-chip affinity screening, binding degree by LC-MS peak area vs protein-free control (ACE); conditions: for ACE; [(As − Ac)/As] × 100, sample vs protein-free control, EIC peak area
T2 construct: ACE (from rabbit lung); purchased Sigma-Aldrich; host or cells: rabbit lung
T2 sequence (P12822 34-1310): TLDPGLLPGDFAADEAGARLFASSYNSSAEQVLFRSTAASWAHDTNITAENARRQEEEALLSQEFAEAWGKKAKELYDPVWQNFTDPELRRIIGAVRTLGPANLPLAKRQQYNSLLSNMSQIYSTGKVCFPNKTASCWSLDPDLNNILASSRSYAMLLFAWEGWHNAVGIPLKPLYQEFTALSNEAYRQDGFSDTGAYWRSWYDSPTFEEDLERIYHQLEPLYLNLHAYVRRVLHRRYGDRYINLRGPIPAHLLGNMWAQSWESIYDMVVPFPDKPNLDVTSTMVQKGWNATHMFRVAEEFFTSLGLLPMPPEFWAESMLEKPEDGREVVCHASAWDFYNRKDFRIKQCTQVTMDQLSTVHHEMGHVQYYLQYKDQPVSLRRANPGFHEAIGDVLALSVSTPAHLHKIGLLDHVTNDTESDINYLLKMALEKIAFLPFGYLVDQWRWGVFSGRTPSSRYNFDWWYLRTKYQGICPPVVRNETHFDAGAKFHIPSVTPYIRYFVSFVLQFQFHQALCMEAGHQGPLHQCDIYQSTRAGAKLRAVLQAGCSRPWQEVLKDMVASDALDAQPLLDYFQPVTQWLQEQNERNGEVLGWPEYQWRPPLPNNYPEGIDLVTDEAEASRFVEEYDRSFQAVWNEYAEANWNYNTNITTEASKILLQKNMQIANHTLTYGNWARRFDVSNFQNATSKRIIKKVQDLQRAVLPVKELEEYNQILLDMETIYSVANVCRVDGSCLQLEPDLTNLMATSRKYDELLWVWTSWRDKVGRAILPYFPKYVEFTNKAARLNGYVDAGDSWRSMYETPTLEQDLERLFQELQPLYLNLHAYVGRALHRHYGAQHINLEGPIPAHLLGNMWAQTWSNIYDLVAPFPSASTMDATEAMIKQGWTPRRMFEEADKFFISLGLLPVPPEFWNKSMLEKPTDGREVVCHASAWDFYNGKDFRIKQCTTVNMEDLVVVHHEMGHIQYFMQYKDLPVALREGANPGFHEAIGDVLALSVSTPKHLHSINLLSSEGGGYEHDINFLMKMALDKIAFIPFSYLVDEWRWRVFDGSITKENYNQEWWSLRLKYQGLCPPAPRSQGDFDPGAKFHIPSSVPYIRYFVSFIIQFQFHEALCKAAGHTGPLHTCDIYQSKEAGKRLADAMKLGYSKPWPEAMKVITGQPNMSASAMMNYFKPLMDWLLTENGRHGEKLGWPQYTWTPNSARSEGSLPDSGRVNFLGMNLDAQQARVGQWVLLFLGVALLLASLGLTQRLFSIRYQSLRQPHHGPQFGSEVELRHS
From the text: as §1, §2
An Agilent 1100 HPLC system (Agilent Technologies, Waldbronn, Germany) coupled with an LCQ Deca XP^plus IT-MS (Thermo Finnigan, San Jose, CA, USA) equipped with an electrospray ionization (ESI) interface was employed for structure elucidation of the bounded constituents. The analysis was performed in negative ionization mode under following operation parameters: scan range m/z 100–1500; capillary voltage −15 V; source voltage −3 kV; capillary temperature 350 °C; sheath gas (N2) 60 arb; auxiliary gas (N2) 20 arb.

[4] = target: T2, ACE (from rabbit lung); assay: on-chip ACE inhibition assay (FAPGG hydrolysis, absorbance decrease 340 nm); assay type: biochemical; parameters: key to IC50 (μM) or inhibition rate: /: No obvious inhibition observed; conditions: for IC50 (μM) or inhibition rate: symbol / = no obvious inhibition
Experimental: To enhance the performance of the on-chip assay, experimental parameters such as concentrations of enzymes and substrates, substrate reaction time, and incubation time of samples and enzymes were stepwise optimized.
The optimized protocol was first applied to assess the quality of 11 batches of QSYQ intermediates (Table 1). Enzyme inhibition (in percentages) was employed as an indicator of drug quality and calculated according to the following equations: thrombin inhibition (%) = [1 − (AQSYQ/Ablank)] × 100; ACE inhibition (%) = [1 − (ΔAQSYQ/ΔAblank)] × 100; where AQSYQ and Ablank were the absorbance of the test sample and the blank sample after the enzymatic reaction (the background value was subtracted), and ΔAQSYQ and ΔAblank were the absorbance decrease between 0 min and 30 min of the samples.
as §3, with “S-2238 was obtained from Aglyco (Beijing, China).” left out
as §2, with “The absorbance of the solution was then monitored at 405 nm (for S-2238) or 340 nm (for FAPGG) using an Infinite F200 spectrophotometer (Tecan, Männedorf, Switzerland).” left out

| SMILES | Binding degree (%) [3] | IC50 (μM) or inhibition rate ([4]; for ACE) | IC50 [2] [µM] | other results |
| --- | --- | --- | --- | --- |
| O=C(/C=C/c1ccc(O)c(O)c1)O[C@H](Cc1ccc(O)c(O)c1)C(=O)O [Rosmarinic acid] |  |  | 92 | Binding degree (%) [1]: 67.4^c %; thrombin inhibition (in words) ([2]; at tested concentrations): good thrombin inhibitions |
| COc1ccc(-c2coc3cc(O[C@@H]4O[C@H](CO)[C@@H](O)[C@H](O)[C@H]4O)ccc3c2=O)cc1 [Ononin] | 52.6^d % |  |  | ACE inhibition (in words) ([4]; at tested concentrations): showed ACE inhibitions; inhibition rate ([4]; for ACE, maximum inhibition rate observed in the assay): 30.6%^d |
| NCCc1ccc(S(=O)(=O)F)cc1 [AEBSF-HCl, reference compound] |  |  | 3.91 |  |
| CC(C)(O)[C@@H]1CC[C@](C)([C@H]2[C@@H](O)C[C@@]3(C)[C@@H]4C[C@H](O[C@@H]5O[C@H](CO)[C@@H](O)[C@H](O)[C@H]5O)[C@H]5C(C)(C)[C@@H](O[C@@H]6OC[C@@H](O)[C@H](O)[C@H]6O)CC[C@@]56C[C@@]46CC[C@]23C)O1 [Astragaloside IV] | 28.3^d % | /^g |  |  |

Second part, led by results:

| Binding degree (%) [3] | IC50 (μM) or inhibition rate ([4]; for ACE) | SMILES | IC50 [2] [µM] | other results |
| --- | --- | --- | --- | --- |
| 53.8^d % | /^g | COc1ccc(-c2coc3cc(O)ccc3c2=O)cc1 [Formononetin] |  |  |
| 19.1^d % | /^g | COc1ccc(-c2coc3cc(O)ccc3c2=O)cc1O [Calycosin] |  |  |
